# Reference: patent publication US20230173113A1, “CYCLIC PEPTIDES AND THEIR CONJUGATES FOR ADDRESSING ALPHA-V-BETA-6 INTEGRIN IN VIVO” (Technische Universität München, priority 2020, published 2023)
# Assays:
# αvβ6-integrin = αvβ6-integrin (Homo sapiens, UniProt P06756+P18564); settings: cited from earlier work
# αvβ3 = αvβ3 (Homo sapiens, UniProt P05106+P06756); settings: cited from earlier work
# α5β1 = α5β1 (Homo sapiens, UniProt P05556+P08648); settings: cited from earlier work
# αvβ5 = αvβ5 (Homo sapiens, UniProt P06756+P18084); settings: cited from earlier work
# Sequence of αvβ5 (P06756 31-1048): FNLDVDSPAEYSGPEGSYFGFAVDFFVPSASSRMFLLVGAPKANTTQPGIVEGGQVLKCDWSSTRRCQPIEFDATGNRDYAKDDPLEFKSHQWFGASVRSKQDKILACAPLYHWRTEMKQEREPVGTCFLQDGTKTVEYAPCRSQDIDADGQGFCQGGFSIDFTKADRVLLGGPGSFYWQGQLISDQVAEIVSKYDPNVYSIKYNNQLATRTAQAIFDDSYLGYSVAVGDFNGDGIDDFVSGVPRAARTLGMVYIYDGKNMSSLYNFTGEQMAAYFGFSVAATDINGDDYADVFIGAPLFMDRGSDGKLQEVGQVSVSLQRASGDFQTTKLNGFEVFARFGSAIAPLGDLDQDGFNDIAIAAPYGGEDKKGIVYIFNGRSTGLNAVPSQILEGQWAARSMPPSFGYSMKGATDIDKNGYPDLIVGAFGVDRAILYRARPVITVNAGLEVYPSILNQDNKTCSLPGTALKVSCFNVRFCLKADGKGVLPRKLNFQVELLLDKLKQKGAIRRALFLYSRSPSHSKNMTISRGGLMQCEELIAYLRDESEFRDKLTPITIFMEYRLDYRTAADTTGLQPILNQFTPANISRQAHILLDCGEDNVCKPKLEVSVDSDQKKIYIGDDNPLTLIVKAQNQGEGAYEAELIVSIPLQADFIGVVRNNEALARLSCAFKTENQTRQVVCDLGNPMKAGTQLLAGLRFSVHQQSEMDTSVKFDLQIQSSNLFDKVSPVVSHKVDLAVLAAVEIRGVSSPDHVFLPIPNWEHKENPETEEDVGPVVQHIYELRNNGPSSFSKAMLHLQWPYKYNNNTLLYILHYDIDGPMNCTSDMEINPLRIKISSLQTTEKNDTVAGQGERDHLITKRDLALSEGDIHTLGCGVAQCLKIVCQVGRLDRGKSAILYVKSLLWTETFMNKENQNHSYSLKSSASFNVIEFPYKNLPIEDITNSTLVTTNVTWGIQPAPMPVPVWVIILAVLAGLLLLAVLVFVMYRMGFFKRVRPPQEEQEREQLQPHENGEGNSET
# Sequence of αvβ5 (P18084 24-799): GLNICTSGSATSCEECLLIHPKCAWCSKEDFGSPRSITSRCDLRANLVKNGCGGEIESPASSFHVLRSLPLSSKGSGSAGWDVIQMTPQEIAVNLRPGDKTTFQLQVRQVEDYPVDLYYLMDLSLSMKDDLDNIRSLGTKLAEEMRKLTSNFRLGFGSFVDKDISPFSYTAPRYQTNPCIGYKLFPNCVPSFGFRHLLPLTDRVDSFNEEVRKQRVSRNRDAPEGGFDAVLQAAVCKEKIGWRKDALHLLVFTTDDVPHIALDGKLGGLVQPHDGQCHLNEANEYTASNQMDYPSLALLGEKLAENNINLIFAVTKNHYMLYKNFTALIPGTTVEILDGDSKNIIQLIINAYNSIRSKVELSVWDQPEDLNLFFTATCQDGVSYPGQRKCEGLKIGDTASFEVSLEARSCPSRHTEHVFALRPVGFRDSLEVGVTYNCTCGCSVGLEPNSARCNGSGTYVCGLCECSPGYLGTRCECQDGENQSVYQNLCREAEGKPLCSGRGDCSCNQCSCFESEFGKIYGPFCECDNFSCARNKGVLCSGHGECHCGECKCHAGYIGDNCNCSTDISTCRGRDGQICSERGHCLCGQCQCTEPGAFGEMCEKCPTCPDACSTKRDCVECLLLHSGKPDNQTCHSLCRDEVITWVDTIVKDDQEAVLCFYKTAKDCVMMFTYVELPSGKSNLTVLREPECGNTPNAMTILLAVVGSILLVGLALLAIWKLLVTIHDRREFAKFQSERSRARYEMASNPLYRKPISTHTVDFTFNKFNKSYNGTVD
# αIIbβ3 = αIIbβ3 (Homo sapiens, UniProt P05106+P08514); settings: cited from earlier work
# Sequence of αIIbβ3 (P08514 32-1039): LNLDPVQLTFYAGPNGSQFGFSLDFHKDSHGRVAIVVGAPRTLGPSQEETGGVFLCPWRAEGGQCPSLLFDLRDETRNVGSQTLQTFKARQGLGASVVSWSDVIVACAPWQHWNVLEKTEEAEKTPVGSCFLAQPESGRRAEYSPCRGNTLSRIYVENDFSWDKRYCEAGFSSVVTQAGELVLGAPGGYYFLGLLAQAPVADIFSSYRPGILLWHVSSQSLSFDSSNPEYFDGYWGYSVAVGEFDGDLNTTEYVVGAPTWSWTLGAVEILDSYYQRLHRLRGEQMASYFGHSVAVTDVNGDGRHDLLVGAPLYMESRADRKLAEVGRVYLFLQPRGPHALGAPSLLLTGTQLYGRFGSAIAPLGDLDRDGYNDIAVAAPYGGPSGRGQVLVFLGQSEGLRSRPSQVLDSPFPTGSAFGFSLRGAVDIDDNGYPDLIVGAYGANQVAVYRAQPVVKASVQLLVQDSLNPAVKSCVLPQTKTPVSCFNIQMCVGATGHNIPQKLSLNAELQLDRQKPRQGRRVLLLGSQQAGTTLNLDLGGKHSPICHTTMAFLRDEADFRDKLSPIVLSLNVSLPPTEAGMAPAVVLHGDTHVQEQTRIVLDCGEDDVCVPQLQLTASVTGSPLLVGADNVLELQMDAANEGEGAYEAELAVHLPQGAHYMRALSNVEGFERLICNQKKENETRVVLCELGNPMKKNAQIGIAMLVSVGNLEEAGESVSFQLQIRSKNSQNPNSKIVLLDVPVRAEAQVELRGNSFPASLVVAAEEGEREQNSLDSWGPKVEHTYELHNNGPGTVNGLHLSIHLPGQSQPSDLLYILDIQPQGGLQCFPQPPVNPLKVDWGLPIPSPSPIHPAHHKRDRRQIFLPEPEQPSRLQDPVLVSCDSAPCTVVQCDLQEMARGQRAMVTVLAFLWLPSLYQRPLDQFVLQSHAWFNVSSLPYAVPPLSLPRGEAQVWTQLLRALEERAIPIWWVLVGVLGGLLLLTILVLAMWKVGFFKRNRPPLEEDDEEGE
# Sequence of αIIbβ3 (P05106 27-788): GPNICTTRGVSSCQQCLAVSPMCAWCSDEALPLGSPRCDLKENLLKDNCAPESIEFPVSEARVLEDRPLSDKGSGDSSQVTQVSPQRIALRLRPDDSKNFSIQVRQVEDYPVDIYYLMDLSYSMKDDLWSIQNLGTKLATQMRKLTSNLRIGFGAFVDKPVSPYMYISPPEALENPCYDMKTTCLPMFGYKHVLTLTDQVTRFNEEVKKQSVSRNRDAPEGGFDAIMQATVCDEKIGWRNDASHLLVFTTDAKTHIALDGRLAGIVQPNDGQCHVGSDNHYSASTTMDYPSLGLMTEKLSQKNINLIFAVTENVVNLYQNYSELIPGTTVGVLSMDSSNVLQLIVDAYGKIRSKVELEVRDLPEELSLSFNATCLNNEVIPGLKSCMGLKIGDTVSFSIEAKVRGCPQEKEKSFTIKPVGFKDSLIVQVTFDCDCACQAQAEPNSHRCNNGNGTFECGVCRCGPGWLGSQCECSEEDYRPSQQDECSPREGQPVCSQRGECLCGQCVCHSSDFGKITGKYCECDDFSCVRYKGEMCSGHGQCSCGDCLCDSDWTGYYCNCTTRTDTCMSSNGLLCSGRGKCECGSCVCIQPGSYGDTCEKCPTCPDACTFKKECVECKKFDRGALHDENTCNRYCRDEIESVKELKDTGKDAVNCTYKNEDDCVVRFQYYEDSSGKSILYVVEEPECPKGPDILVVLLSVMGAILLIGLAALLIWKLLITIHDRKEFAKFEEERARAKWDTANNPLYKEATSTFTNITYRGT
# [1] = up to 3 h; cited from earlier work
# [2] = system: H2009 tumor-bearing SCID mice; test: biokinetics from 90-min dynamic PET scans; settings: mouse, in vivo
# Text: All animal studies have been performed in accordance with general animal welfare regulations in Germany and the institutional guidelines for the care and use of animals. H2009 human lung adenocarcinoma cells (CRL-5911; American Type Culture Collection) were cultivated as recommended by the distributor. To generate tumor xenografts, 6- to 8-week-old female CB17 SCID mice (Charles River) were inoculated with 10^7 H2009 cells in Matrigel (CultrexBME, type 3 PathClear; Trevigen, GENTAUR GmbH). Mice were used for biodistribution or PET studies when tumors had grown to a diameter of 10-12 mm (4-6 weeks after inoculation).
# Mice were anaesthetized with isoflurane for intravenous administration of the radiolabeled compounds. The administered activity per mouse ranged between 10 and 15 MBq (100-200 pmol, depending on variations in timing of production and administration). PET imaging was performed on a Siemens Inveon small-animal PET system, either dynamic under isoflurane anaesthesia for 90 min, or as single frames 75 min p.i. with an acquisition time of 20 min. Data were reconstructed using Siemens Inveon Research Workspace software, employing a three-dimensional ordered subset expectation maximum (OSEM3D) algorithm without scatter and attenuation correction. For kinetic analyses, regions of interest (ROIs) were defined manually.
Molecule,affinity to αvβ6-integrin (αvβ6-integrin),affinity αvβ3 (selectivity against other integrins) (αvβ3),affinity α5β1 (selectivity against other integrins) (α5β1),affinity αvβ5 (selectivity against other integrins) (αvβ5),affinity αIIbβ3 (selectivity against other integrins) (αIIbβ3),stability in human plasma [1],clearance from the blood pool [2]
cyclo(FRGDLAFp(NMe)K) [Phe2],0.26 nM,632 nM,73 nM,> 1 µM,> 1 µM,full stability,–
"CC(C)C[C@@H]1NC(=O)[C@H](CC(=O)O)NC(=O)CNC(=O)[C@H](CCCNC(=N)N)NC(=O)[C@H](Cc2ccc(O)cc2)NC(=O)[C@H](CCCCNC(=O)CCc2cn(CCCNC(=O)CCP(=O)(O)CN3CCN(CP(=O)(O)CCC(=O)NCCCn4cc(CCC(=O)NCCCC[C@H]5C(=O)N[C@@H](Cc6ccc(O)cc6)C(=O)N[C@@H](CCCNC(=N)N)C(=O)NCC(=O)N[C@@H](CC(=O)O)C(=O)N[C@@H](CC(C)C)C(=O)N[C@@H](C)C(=O)N[C@@H](Cc6ccccc6)C(=O)N6CCC[C@@H]6C(=O)N5C)nn4)CCN(CP(=O)(O)CCC(=O)NCCCn4cc(CCC(=O)NCCCC[C@H]5C(=O)N[C@@H](Cc6ccc(O)cc6)C(=O)N[C@@H](CCCNC(=N)N)C(=O)NCC(=O)N[C@@H](CC(=O)O)C(=O)N[C@@H](CC(C)C)C(=O)N[C@@H](C)C(=O)N[C@@H](Cc6ccccc6)C(=O)N6CCC[C@@H]6C(=O)N5C)nn4)CC3)nn2)N(C)C(=O)[C@H]2CCCN2C(=O)[C@H](Cc2ccccc2)NC(=O)[C@H](C)NC1=O [Ga-68-C-9, metal not drawn]",–,–,–,–,–,–,much faster than that of Ga-68-TRAP(Phe2)3
